Data published in ChEMBL document CHEMBL4419163, “Assays for identifying compounds that modulate bitter taste” (2014).

What was measured:
Assay type in all cases: functional, cell-based
[1] = biological target: T1, Taste receptor type 2 member 50 (Homo sapiens) (UniProt P59544); experiment: Agonist activity at human TAS2R50 expressed in HEK293T cells co-expressing Galpha15 assessed as increase in intracellular calcium level at 20 mM by Calcium-3 dye based fluorescence assay relative to control
T1 sequence (whole entry): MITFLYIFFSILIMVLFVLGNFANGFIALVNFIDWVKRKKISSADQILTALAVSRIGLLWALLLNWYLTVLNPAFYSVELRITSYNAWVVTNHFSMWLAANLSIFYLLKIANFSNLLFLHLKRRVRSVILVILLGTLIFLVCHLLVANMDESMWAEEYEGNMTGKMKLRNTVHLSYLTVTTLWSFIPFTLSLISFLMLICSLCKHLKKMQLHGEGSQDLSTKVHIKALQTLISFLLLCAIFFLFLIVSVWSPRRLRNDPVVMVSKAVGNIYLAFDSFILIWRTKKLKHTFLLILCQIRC

[2] = biological target: T2, Taste receptor type 2 member 3 (Homo sapiens) (UniProt Q9NYW6); experiment: Agonist activity at human TAS2R3 expressed in HEK293T cells co-expressing Galpha15 assessed as increase in intracellular calcium level at 20 mM by Calcium-3 dye based fluorescence assay relative to control
T2 sequence (whole entry): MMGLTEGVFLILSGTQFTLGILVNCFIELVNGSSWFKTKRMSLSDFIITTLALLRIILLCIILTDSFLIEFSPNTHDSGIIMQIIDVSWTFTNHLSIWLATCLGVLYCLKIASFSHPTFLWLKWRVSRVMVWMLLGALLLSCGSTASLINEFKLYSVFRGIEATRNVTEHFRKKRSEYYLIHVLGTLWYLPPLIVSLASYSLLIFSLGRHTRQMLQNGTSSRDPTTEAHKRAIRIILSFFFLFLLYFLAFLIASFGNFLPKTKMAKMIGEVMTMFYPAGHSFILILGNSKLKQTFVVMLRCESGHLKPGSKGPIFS

[3] = biological target: T3, Taste receptor type 2 member 1 (Homo sapiens) (UniProt Q9NYW7); experiment: Agonist activity at human TAS2R1 expressed in HEK293T cells co-expressing Galpha15 assessed as increase in intracellular calcium level at 20 mM by Calcium-3 dye based fluorescence assay relative to control
T3 sequence (whole entry): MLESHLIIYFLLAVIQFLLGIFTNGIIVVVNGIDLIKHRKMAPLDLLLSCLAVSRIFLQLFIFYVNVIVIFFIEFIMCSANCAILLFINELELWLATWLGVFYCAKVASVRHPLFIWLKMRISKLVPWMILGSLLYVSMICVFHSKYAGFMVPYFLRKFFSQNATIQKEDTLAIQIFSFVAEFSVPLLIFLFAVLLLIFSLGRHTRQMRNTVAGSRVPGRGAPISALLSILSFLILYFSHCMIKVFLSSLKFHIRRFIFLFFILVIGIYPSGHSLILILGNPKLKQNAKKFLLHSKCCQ

[4] = biological target: T4, Taste receptor type 2 member 43 (Homo sapiens) (UniProt P59537); experiment: Agonist activity at human TAS2R43 expressed in HEK293T cells co-expressing Galpha15 assessed as increase in intracellular calcium level at 20 mM by Calcium-3 dye based fluorescence assay relative to control
T4 sequence (whole entry): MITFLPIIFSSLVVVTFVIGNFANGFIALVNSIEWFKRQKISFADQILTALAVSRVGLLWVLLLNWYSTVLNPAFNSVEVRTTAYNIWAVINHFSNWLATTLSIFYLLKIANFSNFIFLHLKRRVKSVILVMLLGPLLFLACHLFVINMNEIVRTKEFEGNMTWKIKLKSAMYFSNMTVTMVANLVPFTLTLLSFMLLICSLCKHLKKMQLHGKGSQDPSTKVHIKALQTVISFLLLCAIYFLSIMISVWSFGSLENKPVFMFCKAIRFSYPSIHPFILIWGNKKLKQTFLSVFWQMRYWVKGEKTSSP

[5] = biological target: T5, Taste receptor type 2 member 60 (Homo sapiens) (UniProt P59551); experiment: Agonist activity at human TAS2R60 expressed in HEK293T cells co-expressing Galpha15 assessed as increase in intracellular calcium level at 20 mM by Calcium-3 dye based fluorescence assay relative to control
T5 sequence (whole entry): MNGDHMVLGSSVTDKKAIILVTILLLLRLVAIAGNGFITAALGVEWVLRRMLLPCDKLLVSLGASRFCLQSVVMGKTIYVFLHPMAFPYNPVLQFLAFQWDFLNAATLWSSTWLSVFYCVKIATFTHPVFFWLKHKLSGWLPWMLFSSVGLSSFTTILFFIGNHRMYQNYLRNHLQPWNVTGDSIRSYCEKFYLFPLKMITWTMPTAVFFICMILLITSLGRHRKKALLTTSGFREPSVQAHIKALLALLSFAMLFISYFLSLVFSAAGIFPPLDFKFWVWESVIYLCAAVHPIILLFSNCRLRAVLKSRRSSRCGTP

[6] = biological target: T6, Taste receptor type 2 member 10 (Homo sapiens) (UniProt Q9NYW0); experiment: Agonist activity at human TAS2R10 expressed in HEK293T cells co-expressing Galpha15 assessed as increase in intracellular calcium level at 20 mM by Calcium-3 dye based fluorescence assay relative to control
T6 sequence (whole entry): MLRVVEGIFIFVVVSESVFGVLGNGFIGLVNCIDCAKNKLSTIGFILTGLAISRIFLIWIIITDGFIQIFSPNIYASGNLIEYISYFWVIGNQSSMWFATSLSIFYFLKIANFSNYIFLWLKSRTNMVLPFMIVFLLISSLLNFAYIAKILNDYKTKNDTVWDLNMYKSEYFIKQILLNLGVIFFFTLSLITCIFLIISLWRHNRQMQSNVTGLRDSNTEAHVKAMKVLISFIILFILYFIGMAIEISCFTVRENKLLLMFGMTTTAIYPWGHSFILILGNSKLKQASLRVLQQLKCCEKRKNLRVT

[7] = biological target: T7, Taste receptor type 2 member 39 (Homo sapiens) (UniProt P59534); experiment: Agonist activity at human TAS2R39 expressed in HEK293T cells co-expressing Galpha15 assessed as increase in intracellular calcium level at 20 mM by Calcium-3 dye based fluorescence assay relative to control
T7 sequence (whole entry): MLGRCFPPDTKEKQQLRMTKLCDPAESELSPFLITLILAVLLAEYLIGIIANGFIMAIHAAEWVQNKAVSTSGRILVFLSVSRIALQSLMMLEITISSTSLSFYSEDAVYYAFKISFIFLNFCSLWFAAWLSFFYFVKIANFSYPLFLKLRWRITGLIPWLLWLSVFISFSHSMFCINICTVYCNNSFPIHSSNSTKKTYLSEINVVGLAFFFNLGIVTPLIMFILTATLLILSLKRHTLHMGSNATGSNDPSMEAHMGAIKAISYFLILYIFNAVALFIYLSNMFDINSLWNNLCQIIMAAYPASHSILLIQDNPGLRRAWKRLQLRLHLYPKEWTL

Activity [1] [%]	Activity [2] [%]	Activity [3] [%]	Activity [4] [%]	Activity [5] [%]	Activity [6] [%]	Activity [7] [%]	SMILES
< 40	< 40	< 40	< 40	> 40	< 40	< 40	[Cl-].[K+] [POTASSIUM CHLORIDE]
< 40	< 40	< 40	< 40	> 40	< 40	< 40	CC(O)C(=O)[O-].[K+] (stereo unspecified)
< 40	< 40	> 40	< 40	< 40	< 40	< 40	CC1=CC(=O)NS(=O)(=O)O1
